Measured values reported in patent publication US20250179052A1, “PYRIMIDINYL-OXY-QUINOLINE BASED HERBICIDAL COMPOUNDS” (SYNGENTA CROP PROTECTION AG, priority 2022, published 2025).

What was measured:
Details in all cases: 250 g/ha, evaluated after 13 days, five-point scale
[1] = system: Amaranthus retoflexus (AMARE); assay: Post-emergence herbicidal glasshouse test; format: in vivo
AMAPA [2] = assay: Post-emergence herbicidal glasshouse test; format: in vivo, Amaranthus tuberculatus
[3] = system: Echinochloa crus-galli (ECHCG); assay: Post-emergence herbicidal glasshouse test; format: in vivo
[4] = system: Ipomoea hederacea (IPOHE); assay: Post-emergence herbicidal glasshouse test; format: in vivo
[5] = system: Amaranthus retoflexus (AMARE); assay: Pre-emergence herbicidal glasshouse test; format: in vivo
AMAPA [6] = assay: Pre-emergence herbicidal glasshouse test; format: in vivo, Amaranthus tuberculatus
[7] = system: Echinochloa crus-galli (ECHCG); assay: Pre-emergence herbicidal glasshouse test; format: in vivo
[8] = system: Ipomoea hederacea (IPOHE); assay: Pre-emergence herbicidal glasshouse test; format: in vivo

SMILES	percentage damage caused to the plant, AMARE [1]	percentage damage caused to the plant, AMAPA (AMAPA [2])	percentage damage caused to the plant, ECHCG [3]	percentage damage caused to the plant, IPOHE [4]	percentage damage caused to the plant, AMARE [5]	percentage damage caused to the plant, AMAPA (AMAPA [6])	percentage damage caused to the plant, ECHCG [7]	percentage damage caused to the plant, IPOHE [8]
FC(F)(F)c1ncc2c(Oc3ncc(C4CC4)cn3)cccc2n1 [Compound 1.012]	1 (1=0-20%)	1 (1=0-20%)	1 (1=0-20%)	1 (1=0-20%)	1 (1=0-20%)	1 (1=0-20%)	1 (1=0-20%)	1 (1=0-20%)
Cc1ccc(Oc2ncc(Br)cn2)c2cnc(C(F)F)nc12 [Compound 1.023]	2 (2=21-40%)	3 (3=41-60%)	1 (1=0-20%)	1 (1=0-20%)	2 (2=21-40%)	1 (1=0-20%)	1 (1=0-20%)	1 (1=0-20%)
COc1nc(C)c2c(Oc3ncc(Cl)cn3)cccc2n1 [Compound 1.024]	1 (1=0-20%)	2 (2=21-40%)	1 (1=0-20%)	1 (1=0-20%)	3 (3=41-60%)	3 (3=41-60%)	1 (1=0-20%)	1 (1=0-20%)
Cc1cnc(Oc2ccc(C)c3nc(C(F)(F)F)ccc23)nc1 [Compound 1.025]	2 (2=21-40%)	3 (3=41-60%)	1 (1=0-20%)	2 (2=21-40%)	1 (1=0-20%)	1 (1=0-20%)	1 (1=0-20%)	1 (1=0-20%)
Cc1ccc(Oc2ncc(Br)cn2)c2ccc(C(F)(F)F)nc12 [Compound 1.026]	2 (2=21-40%)	2 (2=21-40%)	1 (1=0-20%)	1 (1=0-20%)	1 (1=0-20%)	1 (1=0-20%)	1 (1=0-20%)	1 (1=0-20%)
Cc1ccc(Oc2ncc(F)cn2)c2cnc(C(F)F)nc12 [Compound 1.027]	2 (2=21-40%)	2 (2=21-40%)	1 (1=0-20%)	2 (2=21-40%)	2 (2=21-40%)	2 (2=21-40%)	1 (1=0-20%)	1 (1=0-20%)
Cc1ccc(Oc2ncc(Cl)cn2)c2cnc(C(F)(F)Cl)nc12 [Compound 1.048]	2 (2=21-40%)	2 (2=21-40%)	1 (1=0-20%)	1 (1=0-20%)		1 (1=0-20%)	1 (1=0-20%)	1 (1=0-20%)
Cc1nc(C(F)F)nc2cccc(Oc3ncc(Cl)cn3)c12 [Compound 1.067]	4 (4=61-80%)	4 (4=61-80%)	1 (1=0-20%)	3 (3=41-60%)		3 (3=41-60%)	1 (1=0-20%)	2 (2=21-40%)
